From PubChem BioAssay AID248 (DTP/NCI, 2004)
Inconclusive results and toxic doses are left out. Cut-off read from the data, not from the text of the source: active = T/C of 150% or more; inactive = T/C below 125%. Square brackets hold non-standard residues; d marks the D form. Peptide text beside a SMILES is read from it. * marks the point of attachment. ξ: configuration not given here. Tos = Cc1ccc(S(=O)(=O)*)cc1; ξS = NC(CO)C(=O)O

Tested on: L1210 leukemia ip in BDF1 mice, survival T/C
Experiment: NCI In Vivo Anticancer Drug Screen. Data for tumor model L1210 Leukemia (intraperitoneal) in B6D2F1 (BDF1) mice
Conditions: endpoint: mean survival time, higher = longer survival
Method in brief: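 Ratio derived from survival: compound-dosed mice over vehicle-dosed mice, all bearing a transplantable tumor.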

[1] = dose: 100.0 mg/kg/injection, schedule: Q01DX001 (ip), vehicle: saline
[2] = dose: 200.0 mg/kg/injection, schedule: Q01DX001 (ip), vehicle: saline
[3] = dose: 400.0 mg/kg/injection, schedule: Q01DX001 (ip), vehicle: saline
[4] = dose: 100.0 mg/kg/injection, schedule: Q04DX003 (ip), vehicle: other
[5] = dose: 200.0 mg/kg/injection, schedule: Q04DX003 (ip), vehicle: other
[6] = dose: 400.0 mg/kg/injection, schedule: Q04DX003 (ip), vehicle: other
[7] = dose: 50.0 mg/kg/injection, schedule: Q01DX009 (ip), vehicle: saline with Tween-80
[8] = dose: 100.0 mg/kg/injection, schedule: Q01DX009 (ip), vehicle: saline with Tween-80
[9] = dose: 100.0 mg/kg/injection, schedule: Q01DX009 (ip), vehicle: Klucel (hydroxypropylcellulose) (HPC)
[10] = dose: 200.0 mg/kg/injection, schedule: Q01DX009 (ip), vehicle: Klucel (hydroxypropylcellulose) (HPC)
[11] = dose: 100.0 mg/kg/injection, schedule: Q01DX009 (ip), vehicle: saline sonified
[12] = dose: 400.0 mg/kg/injection, schedule: Q01DX009 (ip), vehicle: saline sonified
[13] = dose: 100.0 mg/kg/injection, schedule: Q04DX003 (ip), vehicle: saline with Tween-80
[14] = dose: 200.0 mg/kg/injection, schedule: Q04DX003 (ip), vehicle: saline with Tween-80

Measured: T/C

O=c1c(N=Nc2ccc(Br)cc2)c(O)n(-c2ccc(Br)cc2)c(=S)n1-c1ccccc1
inactive: dose: 37.5 mg/kg/injection, schedule: Q01DX001 (ip), vehicle: Klucel (hydroxypropylcellulose) (HPC) 108 % of control | dose: 75.0 mg/kg/injection, schedule: Q01DX001 (ip), vehicle: Klucel (hydroxypropylcellulose) (HPC) 110 % of control | dose: 150.0 mg/kg/injection, schedule: Q01DX001 (ip), vehicle: Klucel (hydroxypropylcellulose) (HPC) 102 % of control

CN=C(N)N(C)/N=C/c1ccccc1
inactive: dose: 87.5 mg/kg/injection, schedule: Q04DX003 (ip), vehicle: Klucel (hydroxypropylcellulose) (HPC) 105 % of control

COc1nc(=S)nc(OC)[nH]1
inactive: dose: 100.0 mg/kg/injection, schedule: Q01DX Z (ip), vehicle: methylcellulose (MC) 95 % of control

O=C(OC1COC(SCc2ccccc2)C(OC(=O)c2ccccc2)C1OC(=O)c1ccccc1)c1ccccc1 (stereo unspecified)
inactive: [1] 98 % of control | [2] 110 % of control | [3] 97 % of control

O=C(O)CCCCCNC(=O)C(F)(F)F
inactive: [4] 94 % of control | [5] 103 % of control | [6] 87 % of control

O=C1C(=O)c2c3ccccc3cc3cccc1c23
inactive: [7] 88 % of control | [8] 91 % of control

C=Cc1ccc(Oc2ccccc2)cc1
inactive: [7] 98 % of control | [8] 112 % of control

O=C(Nc1ccc(F)cc1)Nc1cccc(C(F)(F)F)c1
inactive: dose: 50.0 mg/kg/injection, schedule: Q01DX009 (ip), vehicle: Klucel (hydroxypropylcellulose) (HPC) 103 % of control | [9] 107 % of control | [10] 92 % of control

Oc1ccc2ccccc2c1/C=C1/C=Nc2ccccc21
inactive: dose: 100.0 mg/kg/injection, schedule: Q04DX002 (ip), vehicle: saline with Tween-80 88 % of control | dose: 200.0 mg/kg/injection, schedule: Q04DX002 (ip), vehicle: saline with Tween-80 88 % of control | dose: 400.0 mg/kg/injection, schedule: Q04DX002 (ip), vehicle: saline with Tween-80 103 % of control

COC1=CC2C3=CC(C)C4C(=O)OC(=O)C4C3C1C1C(=O)OC(=O)C21 (stereo unspecified)
inactive: [7] 105 % of control | [8] 94 % of control

O=C1c2ccccc2C(=O)c2c1c(O)c1ccccc1c2O
inactive: dose: 100.0 mg/kg/injection, schedule: Q#A X Z (im), vehicle: other 96 % of control | dose: 100.0 mg/kg/injection, schedule: Q#A X Z (ip), vehicle: other 107 % of control | dose: 100.0 mg/kg/injection, schedule: Q#A X Z (sc), vehicle: other 100 % of control | dose: 200.0 mg/kg/injection, schedule: Q#A X Z (im), vehicle: other 97 % of control | dose: 200.0 mg/kg/injection, schedule: Q#A X Z (ip), vehicle: other 96 % of control | dose: 200.0 mg/kg/injection, schedule: Q#A X Z (sc), vehicle: other 107 % of control | dose: 300.0 mg/kg/injection, schedule: Q#A X Z (im), vehicle: other 94 % of control | dose: 300.0 mg/kg/injection, schedule: Q#A X Z (ip), vehicle: other 92 % of control | dose: 300.0 mg/kg/injection, schedule: Q#A X Z (sc), vehicle: other 97 % of control | dose: 400.0 mg/kg/injection, schedule: Q#A X Z (im), vehicle: other 94 % of control | dose: 400.0 mg/kg/injection, schedule: Q#A X Z (ip), vehicle: other 92 % of control | dose: 400.0 mg/kg/injection, schedule: Q#A X Z (sc), vehicle: other 96 % of control | dose: 500.0 mg/kg/injection, schedule: Q#A X Z (oral), vehicle: other 96 % of control | dose: 750.0 mg/kg/injection, schedule: Q#A X Z (oral), vehicle: other 100 % of control

CC(=O)c1cc(C)[nH]c1C
inactive: [11] 100 % of control | dose: 100.0 mg/kg/injection, schedule: Q04DX003 (ip), vehicle: Klucel (hydroxypropylcellulose) (HPC) 89 % of control | dose: 200.0 mg/kg/injection, schedule: Q04DX003 (ip), vehicle: Klucel (hydroxypropylcellulose) (HPC) 106 % of control | [12] 89 % of control

O=CN/N=C/c1c[nH]c(=O)[nH]c1=O
inactive: [1] 101 % of control | [2] 106 % of control | [3] 95 % of control

Cc1cc(C(=O)O)c(C(C)C)cc1C(=O)O
inactive: [4] 101 % of control | [5] 98 % of control | [6] 92 % of control

COc1cc(N(CCC#N)CCC#N)nc(OC)n1
inactive: [7] 96 % of control | [8] 92 % of control | dose: 200.0 mg/kg/injection, schedule: Q01DX009 (ip), vehicle: saline with Tween-80 92 % of control

CCCCCCCC/C=C\CCCCCCCC(=O)OCCCCCCCC
inactive: dose: 100.0 mg/kg/injection, schedule: Q01DX001 (ip), vehicle: Klucel (hydroxypropylcellulose) (HPC) 97 % of control | [11] 102 % of control | dose: 200.0 mg/kg/injection, schedule: Q01DX001 (ip), vehicle: Klucel (hydroxypropylcellulose) (HPC) 98 % of control | dose: 200.0 mg/kg/injection, schedule: Q01DX009 (ip), vehicle: saline sonified 98 % of control | dose: 400.0 mg/kg/injection, schedule: Q01DX001 (ip), vehicle: Klucel (hydroxypropylcellulose) (HPC) 92 % of control | [12] 105 % of control

O=C(Nc1ccc2c(c1)Cc1cc([N+](=O)[O-])ccc1-2)C(F)(F)F
inactive: [13] 94 % of control | [14] 94 % of control | dose: 400.0 mg/kg/injection, schedule: Q04DX003 (ip), vehicle: saline with Tween-80 94 % of control

COc1cc(NC(=O)Nc2cccc(C(C)=O)c2)c(OC)cc1Cl
inactive: [9] 116 % of control | [10] 110 % of control | dose: 400.0 mg/kg/injection, schedule: Q01DX009 (ip), vehicle: Klucel (hydroxypropylcellulose) (HPC) 110 % of control

O=C(CCl)NC(=O)CCl
inactive: dose: 15.6 mg/kg/injection, schedule: Q01DX010 (ip), vehicle: other 97 % of control | dose: 31.3 mg/kg/injection, schedule: Q01DX009 (ip), vehicle: other 90 % of control | dose: 62.5 mg/kg/injection, schedule: Q01DX009 (ip), vehicle: other 92 % of control | [1] 103 % of control | [13] 103 % of control | dose: 125.0 mg/kg/injection, schedule: Q01DX010 (ip), vehicle: other 95 % of control | [2] 100 % of control | [14] 93 % of control

CCCCCCCCCCCCCCCCCCn1cnc2ncnc(Cl)c21
inactive: dose: 12.5 mg/kg/injection, schedule: Q01DX005 (ip), vehicle: other 107 % of control | dose: 25.0 mg/kg/injection, schedule: Q01DX005 (ip), vehicle: other 102 % of control | dose: 50.0 mg/kg/injection, schedule: Q01DX005 (ip), vehicle: other 98 % of control | dose: 100.0 mg/kg/injection, schedule: Q01DX005 (ip), vehicle: other 106 % of control | dose: 200.0 mg/kg/injection, schedule: Q01DX005 (ip), vehicle: other 93 % of control

Cc1ccc(S(=O)(=O)NC(CO)C(=O)NCC(=O)O)cc1 (stereo unspecified) (Tos-[ξS]-Gly-OH)
inactive: dose: 100.0 mg/kg/injection, schedule: Q01DX009 (ip), vehicle: saline 103 % of control | dose: 200.0 mg/kg/injection, schedule: Q01DX009 (ip), vehicle: saline 97 % of control | dose: 400.0 mg/kg/injection, schedule: Q01DX009 (ip), vehicle: saline 91 % of control

CCCOP(=O)(CCl)OCCC
inactive: dose: 100.0 mg/kg/injection, schedule: Q04DX003 (ip), vehicle: saline 101 % of control | dose: 200.0 mg/kg/injection, schedule: Q04DX003 (ip), vehicle: saline 104 % of control | dose: 400.0 mg/kg/injection, schedule: Q04DX003 (ip), vehicle: saline 101 % of control
